This is an account of results in publication PMC9967653, “Anticancer Activities of Novel Nicotinamide Phosphoribosyltransferase Inhibitors in Hematological Malignancies” (Molecules, 2023).

The nature of series [1]: Pharmacokinetics in mice after intraperitoneal administration. As to conditions: for Cmax / Tmax / CL/F / half-life / AUC(0-t) / Vd/F: female SCID mice, intraperitoneal, 20 mg/kg (Figure S1); for Cmax / Tmax / half-life / AUC(0-t) / Vd/F: plasma; for CL/F: dose divided by AUC0-24; for Vd/F: (CL/F)/λz, read-out: Vz/F. Type of series: in vivo. The method, then:
Concentration measurements in mice EDTA plasma samples were performed using a Vanquish Flex ultra-high-performance liquid chromatography (UHPLC) system attached to a TSQ Quantis^TM triple quadrupole mass spectrometer (MS) (ThermoFisher Scientific, Waltham, MA, USA). The chromatographic column was a Luna Omega Polar C18 3 µm, 50 × 2.1 mm from Phenomenex (Torrance, CA, USA), kept at 40 °C in a UHPLC oven. The mobile phase was made of water and acetonitrile (ACN) with 0.1% formic acid in each. The gradient program ranged from 20 to 95% ACN in 1.5 min and the total method duration (including equilibration for the next injection) was 3 min. The flow rate and injection volume were 0.5 mL/min and 5 µL, respectively.
For the sample preparation, 90 µL of ACN was added to an aliquot of 30 µL of mouse plasma for protein precipitation. The mixture was then centrifugated at 14,000 rpm and the supernatant was directly injected in the UHPLC–MS.
Drug plasma concentrations were measured at selected time points after intraperitoneal administration in mice (sacrificed mice in triplicates for each time point). Samples were analyzed on two separate occasions for each sampling. Then, pharmacokinetic (PK) parameters were computed using standard non-compartmental calculations for geometric means of the measured concentrations using the “PKNCA R Package” (R version 4.0.2, R Development Core Team, http://www.r-project.org/ access date: 4 February 2023).
The area under the curve (AUC0-24) was calculated for the four drugs using the trapezoidal and log-trapezoidal rule when appropriate. The terminal rate constant (λz) was approximated using the slope of the terminal phase, while the half-life (T1/2) was calculated as ln(2)/λz, the apparent clearance (CL/F) as the dose divided by AUC0-24 and the apparent volume of distribution (Vz/F) as (CL/F)/λz.

The subject of series [2] is Namalwa cells (Burkitt lymphoma). In words: Cell death after 96 h of treatment (ANXN/7AAD flow cytometry), Namalwa. It is filed as cell-based. As to conditions: Homo sapiens. The method, then:
(§1) Four hematological cell lines (ML2—acute myeloid leukemia; Jurkat—acute lymphoblastic leukemia; Namalwa—Burkitt lymphoma; and RPMI8226—multiple myeloma) were purchased from DSMZ (German Collection of Microorganisms and Cell Cultures, Braunschweig, Germany) or ATCC.
(§2) All cells were cultured in RPMI medium (Invitrogen AG, 61870-01) supplemented with 10% heat inactivated fetal calf serum (Amimed, 2-01F30-I) and 1% penicillin/streptomycin at 37 °C (Amimed, 4-01F00-H) in a humidified atmosphere of 95% air and 5% CO2.
(§3) To determine the cell death induced by NAMPT inhibitors, malignant cells were stained with ANNEXIN-V (ANXN, eBioscience, BMS306FI/300) and 7-aminoactinomycin D (7AAD, Immunotech, A07704) as described by the manufacturer and analyzed using flow cytometry. Dead cells were identified as ANXN+7AAD+ /7AAD+ and early apoptotic cells as ANXN+ 7AAD-. Specific cell death induced by inhibitors was calculated using the following formula: percent of cell death induced by compound = [(S – C) / (100 – C)] × 100; where S = treated sample cell death and C = untreated sample cell death.

In series [3] the test system is RPMI8226 cells (multiple myeloma). In words: Cell death after 96 h of treatment (ANXN/7AAD flow cytometry), RPMI8226. It is filed as cell-based. As to conditions: Homo sapiens, RPMI-8226; RPMI8226, 96 h. The method, then:
as §1, §2, §3
On the technique in general: In flow cytometry, cells or beads pass a laser one at a time.

The test system of series [4] is Jurkat cells (acute lymphoblastic leukemia). In words: Cell death after 96 h of treatment (ANXN/7AAD flow cytometry), Jurkat. As to conditions: Homo sapiens. Type of series: cell-based. The method, then: as §1, §2, §3
The subject of series [5] is ML2 cells (acute myeloid leukemia). In words: Cell death after 96 h of treatment (ANXN/7AAD flow cytometry), ML2. Type of series: cell-based. As to conditions: Homo sapiens, ML-2; ML2, 96 h. The method, then: as §1, §2, §3
The subject of series [6] is Namalwa tumors (human Burkitt lymphoma cell line). In words: Mouse xenograft model of human Burkitt lymphoma. Type of series: in vivo. As to conditions: for Tumor growth: 10 mg/kg I.P. twice a day for 4 days, weekly over 3 weeks, JJ08: 5 days after administration. The method, then:
The new NAMPT inhibitors (JJ08, FEI191 and FEI199 (in comparison with lead compound, FK866 (APO866))) were evaluated in vivo in a mouse xenograft model of human Burkitt lymphoma. […] non-leaky C.B.-17 SCID mice (8 to 10 weeks old; Iffa Credo, L’Arbresle, France) were housed in micro-isolator cages in a specific pathogen-free room in the animal facility at the University Hospital of Lausanne. Firstly, the mice spent one week alone to acclimatize to their new environment. All animals were handled according to the institutional regulations and with the prior approval of the animal ethic committee of the University of Lausanne. Manipulations were performed in sterile conditions under a laminar flow hood. Firstly, Namalwa cells (1 × 10^7) were injected subcutaneously into the mouse flank side. Once the tumors became palpable and reached a size between 100 and 150 mm^3, mice (n = five/ group) were randomized into control and treated groups. The drugs were administered intraperitoneally (10 mg/kg body weight) in 200 µL 0.9% saline twice a day for 4 days, repeated weekly over 3 weeks. The control group was treated only with 200 µL 0.9% saline. Every day, the animals were monitored for any signs of illness, and in cases where the tumor size reached a diameter of 15 mm, they were sacrificed immediately.
Tumor size (A) and survival rate (B) of mice xenografted with Namalwa cells treated or untreated with NAMPT inhibitors were monitored for 21 days. Twenty-five 6-to-8-week-old C.B.-17 SCID mice were transplanted subcutaneously with Namalwa cells (10^7). Once tumors reached a volume of approximately 100–150 mm^3, at day 14, mice were randomized into five groups of animals (n = 5) with similar body weight. Control groups received vehicle (pink line) and JJ08 (10 mg/kg; light blue line), FEI191 (10 mg/kg; red line), FEI199 (10 mg/kg; green line) or APO866 (10 mg/kg; blue line) were administered as described in the Materials and Methods section. […] Data were analyzed by the Kaplan–Meier survival analysis with log-rank test.

In another series the target is T1, purified NAMPT (Homo sapiens, UniProt P43490).
T1 construct: purchased Abcam ab221819
T1 sequence (P43490 whole entry): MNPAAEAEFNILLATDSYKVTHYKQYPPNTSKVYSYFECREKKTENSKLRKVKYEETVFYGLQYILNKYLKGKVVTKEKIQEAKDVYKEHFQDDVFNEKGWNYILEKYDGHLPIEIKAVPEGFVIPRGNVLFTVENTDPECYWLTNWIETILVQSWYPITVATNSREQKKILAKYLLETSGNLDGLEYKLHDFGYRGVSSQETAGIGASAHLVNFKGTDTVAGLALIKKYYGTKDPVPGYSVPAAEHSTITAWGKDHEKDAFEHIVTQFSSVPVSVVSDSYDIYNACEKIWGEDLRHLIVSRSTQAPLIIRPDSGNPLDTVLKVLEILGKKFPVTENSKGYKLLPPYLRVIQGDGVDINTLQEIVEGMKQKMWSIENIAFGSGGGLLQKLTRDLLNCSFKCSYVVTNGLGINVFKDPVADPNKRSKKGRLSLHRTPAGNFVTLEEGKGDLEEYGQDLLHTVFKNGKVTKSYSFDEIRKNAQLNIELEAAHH
In words: NAMPT enzymatic activity assay (colorimetric kit). It is filed as biochemical. As to conditions: 1 µM final concentration. The method, then:
The ability of FK866 (APO866) analogues to inhibit NAMPT activity was assessed with an NAMPT Activity Assay Kit (Colorimetric) (Abcam, ab221819, Cambridge, UK) according to the manufacturer’s instructions. Briefly, NAMPT inhibitors were dissolved in DMSO to a final concentration of 1 µM and distributed in a 96-well plate in duplicate. Then, a reaction mix containing assay buffer, ATP, NMNAT1, NAM, PRPP and ddH2O was added and the plate was incubated at 30 °C for 60 min. After, to measure the generated NAD^+, a mix of WST-1, ADH, diaphorase and ethanol was added to the wells. The absorbance was measured in kinetic mode at 450 nm on a microplate reader for 45 min at 30 °C.
Figure 2 New compounds with a potent NAMPT inhibitory activity. Compounds were added in 1 µM final concentration to purified NAMPT and incubated with co-substrates, resulting in a reduction of tetrazolium salt (WST-1) to colorful formazan. The amount of formed dye is directly proportional to the enzyme activity. The absorbance of the dye was detected at OD 450 nm.

Series [7] has as its system ML2, Jurkat, Namalwa and RPMI8226 cells. In words: Cell death in the four hematological cancer cell lines, statements for all lines together. Type of series: cell-based, human. As to conditions: 96 h. The method, then:
as §1, §2, §3
A dose-dependent analysis of cell death induced by NAMPT inhibitors on ML2 (A), Jurkat (B), Namalwa (C) and RPMI8226 (D) cell lines. The cells were treated with various concentrations of NAMPT inhibitors for 96 h and cell death was assessed by flow cytometry using ANXN and 7AAD staining. […]

pIC50: −log10 of the molar value. Read-outs that look alike come from different tables or passages of the source.

Turning to `O=C(/C=C/c1cccnc1)NCCCCC1CCN(C(=O)c2ccccc2)CC1` [APO866, reference compound], in series [1], the Cmax was 28,028 ng/mL, the time of peak concentration (Tmax) was determined as 0.17 h and the CL/F is 24 mL/h. Further, in series [1] (mouse, ip), the half-life is 3.74 h and the Vd/F amounted to 0.131 L. Further, the AUC(0-t) in series [1] (mouse, ip, read-out: AUC0-24) stood at 16400 ng·h/mL. This compound also gave a pIC50 in series [2] of 9.24. Also, the pIC50 in series [3] is 9.64. This compound also gave a negative logarithm of the IC50 (pIC50) in series [4] of 9.33. The pIC50 in series [5] was 9.39.

`O=C(/C=C/c1cccnc1)NCCCCC1CCN(C(=O)c2ccco2)CC1` [JJ08, (E)-N-(4-(1-(furan-2-carbonyl)piperidin-4-yl)butyl)-3-(pyridin-3-yl)acrylamide] came in with an apparent clearance (CL/F) in series [1] of 53 mL/h. For the same compound, the “AUC0-24, fold lower than that of APO866” value in series [1] (mice, I.P.) is “approximately 2 fold”. Besides, the “CL/F, fold higher compared to APO866” value in series [1] (mice, I.P.) was found to be 2 fold. The half-life in series [1] (mouse, ip) is 6.58 h. Also, in series [1] (mouse, ip, read-out: AUC0-24), the AUC(0-t) was determined as 7560 ng·h/mL. Besides, the maximum concentration (Cmax) in series [1] (mouse, ip, read-out: Cmax) is 24300 ng/mL. Also, the Tmax in series [1] (mouse, ip, read-out: Tmax) worked out at 0.17 h. The Vd/F in series [1] (mouse, ip) was found to be 0.502 L. Moreover, the pIC50 in series [2] is 9.24; in series [3], 9.52; in series [4], 9.07; in series [5], 9.29. Besides, the Tumor growth result in series [6] is “completely eradicated tumor growth”. Moreover, the “Signs of toxicity (loss of body weight, lethargy, rough coat, premature death)” value in series [6] (xenografted mice, 10 mg/kg I.P.) is “well tolerated”. For the same compound, on purified NAMPT, the “Inhibition of NAMPT activity” value is given as “full inhibition”.

On to `N#CN=C(NC/C=C/CCC1CCN(C(=O)c2ccco2)CC1)Nc1ccncc1` [FEI199], for which the Cmax in series [1] is 12,031 ng/mL. For the same compound, the Tmax in series [1] is recorded as 0.17 h. For the same compound, the CL/F in series [1] is reported as 108 mL/h. Also, the “Clearance, fold higher than APO866 or JJ08” value in series [1] (mice, I.P.) is “more than 4 fold”. Further, the AUC(0-t) in series [1] (mouse, ip, AUC calculated from PK measurements up to 8 h, read-out: AUC0-24 (*)) is 3720 ng·h/mL. Besides, the pIC50 in series [2] is 9.54; in series [3], 9.92; in series [4], 9.60; in series [5], 9.68; in series [7] (Homo sapiens, all four cell lines, read-out: IC50 in all malignancies), over 9.52. In series [6], the Tumor growth result is “did not stop tumor progression, but significantly delayed it”. Besides, the “Inhibition of NAMPT activity” value on purified NAMPT is recorded as “full inhibition”. The “Concentration inducing maximal cell killing” value in series [7] (all tested cell lines) is at most 0.5 nM.

In general, Cmax refers to the peak of the concentration-time curve. As usually defined, the Tmax is the time at which the peak concentration occurs. The CL/F is clearance divided by bioavailability, as obtained after extravascular dosing. In general, half-life refers to the time in which the quantity being followed falls by half. Low values mean fast loss, high ones slow loss. In general, pIC50 refers to the negative decadic logarithm of the IC50, by convention in mol/L.
